Measured values: US20220267300A1 (NodThera Limited, priority 2019, published 2022)

These compounds were tested on IL-1β release upon NLRP3 activation in peripheral blood mononuclear cells (PBMC) (assay: PBMC IC50 determination assay (inhibition of IL-1β release)). Settings: Homo sapiens; IL-1β release from LPS-primed PBMC stimulated with ATP (5 mM) or nigericin (10 μM); ELISA or HTRF; corresponding sodium salts evaluated.
Assay type: cell-based
Method: The compounds of the present disclosure were tested for their inhibitory activity against IL-1β release upon NLRP3 activation in peripheral blood mononuclear cells (PBMC).
Protocol A. PBMC were isolated from buffy coats by density gradient centrifugation on Histopaque-1077 (Sigma, cat no. 10771). Isolated cells were seeded into the wells of a 96-well plate and incubated for 3 h with lipopolysaccharide (LPS). Following medium exchange, the compounds of the present disclosure were added (a single compound per well) and the cells were incubated for 30 min. Next, the cells were stimulated either with ATP (5 mM) or nigericin (10 μM) for 1 h and the cell culture media from the wells were collected for further analysis.
The release of IL-1β into the media was determined by a quantitative detection of IL-1β in the media using an IL-1β enzyme-linked immunosorbent assay (ELISA) Ready-SET-Go!, eBioscience cat. No. 88-7261-88. Briefly, in a first step, high affinity binding plates (Corning, Costar 9018 or NUNC Maxisorp Cat No. 44-2404) were coated overnight at 4° C. with specific capture antibody included in the kit (anti-human IL-1β ref. 14-7018-68). Subsequently, plates were blocked with blocking buffer for 1 h at room temperature (rt) and after washing with a buffer (PBS with 0.05% Tween-20) incubated with protein standard and culture media. After 2 h of incubation at rt, plates were washed and incubated with biotinylated detection antibody included in the kit (anti-human IL-1β Biotin ref. 33-7110-68) for 1 h at rt. Plates were washed and incubated with HRP-streptavidin for 30 min at rt and washed again. The signal was developed after addition of 3,3′,5,5′-tetramethylbenzidine-peroxidase (TMB) until colour appeared and the reaction was stopped by 2 M H2SO4. A microplate spectrophotometer (BioTek) was used to detect signals with 450 nm. The detection range of IL-1β ELISA was 2-150 ng/ml.
Protocol B. PBMC were isolated from buffy coats by density gradient centrifugation on Histopaque-1077 (Sigma, cat no. 10771). Isolated cells were seeded into the wells (280,000 cells/well) of a 96-well plate and incubated for 3 h with lipopolysaccharide (LPS, 1 μg/ml diluted 1000× from a 1 mg/ml stock solution). The compounds of the present disclosure were added (a single compound per well) and the cells were incubated for 30 min. Next, the cells were stimulated with ATP (5 mM final concentration diluted 20× from a 100 mM stock solution) for 1 h and the cell culture media from the wells were collected for further analysis.
The release of IL-1β into the media was determined by quantitative detection of IL-1β in the media using HTRF®, CisBio cat. No. 62HIL1BPEH. Briefly, cell culture supernatant were dispensed directly into the assay plate containing antibodies labelled with the HTRF® donor and acceptor. A microplate spectrophotometer (BMG) was used to detect signals at 655 nm and 620 nm. The detection range of IL-1β HTRF® was 39-6500 pg/ml.

Row | SMILES | IC50
1 | CC(C)c1cc(Cl)cc(CC(=O)NS(=O)(=O)N(C[C@@H]2CCCN2C)c2cnn(C)c2)c1 [Example 8, 2-[3-Chloro-5-(propan-2-yl)phenyl]-N-[(1-methyl-1H-pyrazol-4-yl)({[(2S)-1-methylpyrrolidin-2-yl]methyl})sulfamoyl]acetamide] | 1 to 3 µM
2 | CC(C)c1cc(CC(=O)N=S(N)(=O)N(c2cnn(C)c2)C2CCCN(C)C2)c(C(C)C)s1 (stereo not drawn) [Example 15, N-{Amino[(1-methyl-1H-pyrazol-4-yl)(1-methylpiperidin-3-yl)amino]oxo-lambda6-sulfanylidene}-2-[2,5-bis(propan-2-yl)thiophen-3-yl]acetamide] | 10 to 50 µM
3 | CC(C)c1cc(CC(=O)NS(=O)(=O)N(c2cnn(C)c2)C2CCCN(C)C2)cc(C(C)C)c1 (stereo not drawn) [Example 3] | 10 to 50 µM
4 | CN1CCCC(N(c2cnn(C)c2)S(=O)(=O)NC(=O)Cc2ccc3c(c2)C(C)(C)CO3)C1 (stereo not drawn) [Example 49] | ≥ 50 µM
5 | CN1CCC(N(c2cnn(C)c2)S(=O)(=O)NC(=O)Cc2c3c(cc4c2CC4)CC3)CC1 [Example 29, N-[(1-methyl-4-piperidyl)-(1-methylpyrazol-4-yl)sulfamoyl]-2-(2-tricyclo[6.2.0.03,6]deca-1(8),2,6-trienyl)acetamide] | 1 to 3 µM
6 | CC(C)c1cc(CC(=O)NS(=O)(=O)N(C[C@@H]2CCCN2C)c2cnn(C)c2)cc(C(F)(F)F)c1 [Example 10, N-[(1-Methyl-1H-pyrazol-4-yl)({[(2S)-1-methylpyrrolidin-2-yl]methyl})-sulfamoyl]-2-[3-(propan-2-yl)-5-(trifluoromethyl)phenyl]acetamide] | 3 to 10 µM
7 | CC(C)c1cc(CC(=O)NS(=O)(=O)N(C[C@@H]2CCCN2C)c2cnn(C)c2)cc(C(C)C)c1F [Example 9, 2-[4-Fluoro-3,5-bis(propan-2-yl)phenyl]-N-[(1-methyl-1H-pyrazol-4-yl)({[(2S)-1-methylpyrrolidin-2-yl]methyl})sulfamoyl]acetamide] | 10 to 50 µM
8 | Cn1cc(N(C2CCCN(C(=O)OCc3ccccc3)C2)S(=O)(=O)NC(=O)Cc2c3c(cc4c2CCC4)CCC3)cn1 (stereo not drawn) [Example 19, Benzyl 3-({[2-(1,2,3,5,6,7-hexahydro-s-indacen-4-yl)acetamido]sulfonyl}(1-methyl-1H-pyrazol-4-yl)amino)piperidine-1-carboxylate] | 3 to 10 µM
9 | CC(C)c1cc(Cl)cc(C(C)C)c1CC(=O)NS(=O)(=O)N(C[C@@H]1CCCN1C)c1cnn(C)c1 [Example 40] | ≥ 50 µM
10 | CN1CCC[C@H]1CN(c1cnn(C)c1)S(=O)(=O)NC(=O)Cc1cc(Cl)cc(C(C)(C)C)c1 (stereo in doubt) [Example 56] | ≥ 50 µM
11 | Cc1cc(C)cc(CC(=O)NS(=O)(=O)N(c2cnn(C)c2)C2CCCN(C)C2)c1 (stereo not drawn) [Example 32] | ≥ 50 µM
12 | CC(=O)NCCN(c1cnn(C)c1)S(=O)(=O)NC(=O)Cc1c2c(cc3c1CCC3)CCC2 [Example 23, N-[(2-Acetamidoethyl)(1-methyl-1H-pyrazol-4-yl)sulfamoyl]-2-(1,2,3,5,6,7-hexahydro-s-indacen-4-yl)acetamide] | 10 to 50 µM
13 | CC(C)c1ccc(C(C)C)c(CC(=O)NS(=O)(=O)N(C[C@@H]2CCCN2C)c2cnn(C)c2)c1 [Example 50] | ≥ 50 µM
14 | CN1CCC[C@H]1CN(c1cnn(C)c1)S(=O)(=O)NC(=O)Cc1cc(Cl)cc(OCC(F)(F)F)c1 [Example 51] | ≥ 50 µM
15 | Cc1ccc(C(C)C)cc1CC(=O)NS(=O)(=O)N(c1cnn(C)c1)C1CCCN(C)C1 (stereo not drawn) [Example 48] | ≥ 50 µM
